Where two headings read alike, the source gives them in different places.
Test system: anesthetized, open-chested dogs
Assay: Inotropic, chronotropic and pressor/depressor activities in anesthetized, open-chested dogs (Walton-Brodie strain gauge, ventricular and aortic catheters)
Format: in vivo
Details: for ED50 / ED (75% increase) / ED (100% increase) / ED (150% increase): Canis lupus familiaris; for ED50: read-out: Inotropic Potency CF50; for ED (75% increase): read-out: Inotropic Potency dP/dt75; for ED (100% increase): read-out: Inotropic Potency CF100; for ED (150% increase): read-out: Inotropic Potency dP/dt150; for Cardioselectivity: Change in diastolic blood pressure obtained at CF50 / Inotropic Selectivity: Change in heart rate obtained at CF50: at the dose giving 50% increase in cardiac contractile force; for Cardioselectivity: Change in diastolic blood pressure obtained at dP/dt75 / Inotropic Selectivity: Change in heart rate obtained at dP/dt75: at the dose giving 75% increase in left ventricular dP/dt; for Cardioselectivity: Change in diastolic blood pressure obtained at CF100 / Inotropic Selectivity: Change in heart rate obtained at CF100: at the dose giving 100% increase in cardiac contractile force; for Cardioselectivity: Change in diastolic blood pressure obtained at dP/dt150 / Inotropic Selectivity: Change in heart rate obtained at dP/dt150: at the dose giving 150% increase in left ventricular dP/dt
Procedure: The following tests were conducted: • In anesthetized, open-chested dogs, instrumented with a Walton-Brodie strain gauge to measure cardiac contractile force, a ventricular catheter to measure left ventricular dP/dt and an aortic catheter to measure diastolic blood pressure and heart rate. Contractile force and L.V. dP/dt are indices of cardiac contractility and provide information on the inotropic state of the heart. The experimental standard drugs are compared by normalizing pressor/depressor and heart rate responses to a given inotropic effect. Cardioselective inotropic agents will produce minimal diastolic pressure changes for any given inotropic effect. Likewise, inotropic selective agents will produce minimal heart rate changes for any given inotropic effect.

[1] = dose required to produce 50% increase in cardiac contractile force (CF), means ± SEM
[2] = dose required to produce 75% increase in left ventricular dP/dt, means ± SEM
[3] = dose required to produce 100% increase in cardiac contractile force (CF), means ± SEM
[4] = dose required to produce 150% increase in left ventricular dP/dt, means ± SEM

SMILES: COc1cc2c(cc1OC)CC(NC(C)CCc1ccc(O)cc1)CC2 (stereo not shown) [A, 2-(3-p-hydroxyphenyl-1-methylpropyl) amino-6,7-dimethoxy-1,2,3,4-tetrahydronaphthalene]
- ED50 [1]: 158 µg/kg
- ED (75% increase) [2]: 262 µg/kg
- ED (100% increase) [3]: 333 µg/kg
- ED (150% increase) [4]: 756 µg/kg
- Cardioselectivity: Change in diastolic blood pressure obtained at CF50 (means ± SEM): -17 mm Hg
- Inotropic Selectivity: Change in heart rate obtained at CF50 (means ± SEM): 5 BPM
- Cardioselectivity: Change in diastolic blood pressure obtained at dP/dt75 (means ± SEM): -23 mm Hg
- Inotropic Selectivity: Change in heart rate obtained at dP/dt75 (means ± SEM): 10 BPM
- Cardioselectivity: Change in diastolic blood pressure obtained at CF100 (means ± SEM): -27 mm Hg
- Inotropic Selectivity: Change in heart rate obtained at CF100 (means ± SEM): 14 BPM
- Cardioselectivity: Change in diastolic blood pressure obtained at dP/dt150 (means ± SEM): -40 mm Hg
- Inotropic Selectivity: Change in heart rate obtained at dP/dt150 (means ± SEM): 27 BPM

SMILES: CC(CCc1ccc(O)cc1)NC1CCc2cc(O)c(O)cc2C1 (stereo not shown) [B, 2-(3-p-hydroxyphenyl-1-methylpropyl) amino-6,7-dihydroxy-1,2,3,4-tetrahydronaphthalene]
- ED50 [1]: 56.3 µg/kg
- ED (75% increase) [2]: 125 µg/kg
- ED (100% increase) [3]: 198 µg/kg
- ED (150% increase) [4]: 359 µg/kg
- Cardioselectivity: Change in diastolic blood pressure obtained at CF50 (means ± SEM): -13 mm Hg
- Inotropic Selectivity: Change in heart rate obtained at CF50 (means ± SEM): -17 BPM
- Cardioselectivity: Change in diastolic blood pressure obtained at dP/dt75 (means ± SEM): 37 mm Hg
- Inotropic Selectivity: Change in heart rate obtained at dP/dt75 (means ± SEM): 0 BPM
- Cardioselectivity: Change in diastolic blood pressure obtained at CF100 (means ± SEM): 57 mm Hg
- Inotropic Selectivity: Change in heart rate obtained at CF100 (means ± SEM): 15 BPM
- Cardioselectivity: Change in diastolic blood pressure obtained at dP/dt150 (means ± SEM): 75 mm Hg
- Inotropic Selectivity: Change in heart rate obtained at dP/dt150 (means ± SEM): 32 BPM

SMILES: NC1CCc2cc(O)c(O)cc2C1 (stereo not shown) [C, 2-amino-6,7-dihydroxy-1,2,3,4-tetrahydro-naphthalene]
- ED50: 44.9 ± 3.3 µg/kg
- ED (100% increase): 119 ± 34.7 µg/kg
- ED (75% increase): 40.4 ± 3.1 µg/kg
- ED (150% increase): 75.6 ± 5.8 µg/kg
- Cardioselectivity: Change in diastolic blood pressure obtained at CF50 (means ± SEM): 31 ± 9 mm Hg
- Inotropic Selectivity: Change in heart rate obtained at CF50 (means ± SEM): -12 ± 9 BPM
- Cardioselectivity: Change in diastolic blood pressure obtained at dP/dt75 (means ± SEM): 30 + 5 mm Hg
- Inotropic Selectivity: Change in heart rate obtained at dP/dt75 (means ± SEM): -12 ± 10 BPM
- Cardioselectivity: Change in diastolic blood pressure obtained at CF100 (means ± SEM): 61 ± 10 mm Hg
- Inotropic Selectivity: Change in heart rate obtained at CF100 (means ± SEM): 21 ± 17 BPM
- Cardioselectivity: Change in diastolic blood pressure obtained at dP/dt150 (means ± SEM): 51 ± 5 mm Hg
- Inotropic Selectivity: Change in heart rate obtained at dP/dt150 (means ± SEM): 5 ± 8 BPM

SMILES: NCCc1ccc(O)c(O)c1 [E, 4-(2-aminoethyl)-1,2-benzenediol]
- ED50 [1]: 9.1 ± 1 µg/kg
- ED (75% increase) [2]: 9.9 ± 0.7 µg/kg
- ED (100% increase) [3]: 19.6 ± 2.7 µg/kg
- ED (150% increase) [4]: 23.7 ± 3 µg/kg
- Cardioselectivity: Change in diastolic blood pressure obtained at CF50 (means ± SEM): -20 ± 6 mm Hg
- Inotropic Selectivity: Change in heart rate obtained at CF50 (means ± SEM): 5 ± 5 BPM
- Cardioselectivity: Change in diastolic blood pressure obtained at dP/dt75 (means ± SEM): -20 ± 7 mm Hg
- Inotropic Selectivity: Change in heart rate obtained at dP/dt75 (means ± SEM): 5 ± 6 BPM
- Cardioselectivity: Change in diastolic blood pressure obtained at CF100 (means ± SEM): -12 ± 9 mm Hg
- Inotropic Selectivity: Change in heart rate obtained at CF100 (means ± SEM): 12 ± 5 BPM
- Cardioselectivity: Change in diastolic blood pressure obtained at dP/dt150 (means ± SEM): -10 ± 8 mm Hg
- Inotropic Selectivity: Change in heart rate obtained at dP/dt150 (means ± SEM): 13 ± 6 BPM

SMILES: CC(C)NCC(O)c1ccc(O)c(O)c1 (stereo not shown) [F, 4-(1-hydroxy-2-((1-methylethyl)-amino)ethyl)-1,2-benzenediol]
- ED (75% increase) [2]: 0.04 ± 0.01 µg/kg
- ED (100% increase) [3]: 0.09 ± 0.02 µg/kg
- ED (150% increase) [4]: 0.14 ± 0.05 µg/kg
- Cardioselectivity: Change in diastolic blood pressure obtained at CF50 (means ± SEM): -6 ± 2 mm Hg
- Inotropic Selectivity: Change in heart rate obtained at CF50 (means ± SEM): 14 ± 2 BPM
- Cardioselectivity: Change in diastolic blood pressure obtained at dP/dt75 (means ± SEM): -6 ± 2 mm Hg
- Inotropic Selectivity: Change in heart rate obtained at dP/dt75 (means ± SEM): 14 ± 1 BPM
- Cardioselectivity: Change in diastolic blood pressure obtained at CF100 (means ± SEM): -15 ± 2 mm Hg
- Inotropic Selectivity: Change in heart rate obtained at CF100 (means ± SEM): 34 ± 3 BPM
- Cardioselectivity: Change in diastolic blood pressure obtained at dP/dt150 (means ± SEM): -16 ± 2 mm Hg
- Inotropic Selectivity: Change in heart rate obtained at dP/dt150 (means ± SEM): 41 ± 5 BPM

SMILES: CC(CCc1ccc(O)cc1)NCCc1ccc(O)c(O)c1 (racemic) [D, (±)-4-(2(3-p-hydroxyphenyl-1-methylpropyl)amino) ethyl-1,2-benzenediol]
- ED50 [1]: 1.4 ± 0.2 µg/kg
- ED (100% increase) [3]: 4.4 µg/kg
- ED (150% increase) [4]: 4 ± 0.6 µg/kg
- Cardioselectivity: Change in diastolic blood pressure obtained at CF50 (means ± SEM): 3 ± 1 mm Hg
- Inotropic Selectivity: Change in heart rate obtained at CF50 (means ± SEM): 3 ± 1 BPM
- Cardioselectivity: Change in diastolic blood pressure obtained at dP/dt75 (means ± SEM): 4 ± 1 mm Hg
- Inotropic Selectivity: Change in heart rate obtained at dP/dt75 (means ± SEM): 3 ± 1 BPM
- Cardioselectivity: Change in diastolic blood pressure obtained at CF100 (means ± SEM): 4 ± 3 mm Hg
- Inotropic Selectivity: Change in heart rate obtained at CF100 (means ± SEM): 17 ± 5 BPM
- Cardioselectivity: Change in diastolic blood pressure obtained at dP/dt150 (means ± SEM): 3 ± 3 mm Hg
- Inotropic Selectivity: Change in heart rate obtained at dP/dt150 (means ± SEM): 13 ± 2 BPM
